Measurements taken from PubChem BioAssay AID318 (DTP/NCI, 2004).
Values joined by “and” are separate entries in the source; they are usually repeats but may differ in a detail not shown here. Equal entries are not always repeated. Toxic doses and inconclusive results are not listed.

Test system: BDF1 mice, P815 leukemia ip, survival T/C
Assay: NCI In Vivo Anticancer Drug Screen. Data for tumor model P815 Mast Cell Leukemia (Ascitic) (intraperitoneal) in B6D2F1 (BDF1) mice
Conditions: endpoint: survival time, mean or median, vehicle: saline, higher = longer survival
Experimental: The antitumor activity of compounds was measured in mice bearing transplantable tumors. Survival or tumor size were measured and the results are expressed as the measurement made in the treated group (T) divided by the measurement made in the vehicle treated control group (C). The tumor model used in this assay is P815 Mast Cell Leukemia (Ascitic) (intraperitoneal) in B6D2F1 (BDF1) mice

[1] = dose: 2.0 mg/kg/injection, schedule: Q01DX010 (ip)
[2] = dose: 4.0 mg/kg/injection, schedule: Q01DX010 (ip)
[3] = dose: 8.0 mg/kg/injection, schedule: Q01DX010 (ip)

## CS(=O)(=O)OCC(O)C(O)C(O)C(O)COS(C)(=O)=O (stereo unspecified)
dose: 25.0 mg/kg/injection, schedule: Q01DX010 (ip)
  T/C: 100 % of control
dose: 50.0 mg/kg/injection, schedule: Q01DX010 (ip)
  T/C: 100 % of control and 112 % of control
dose: 100.0 mg/kg/injection, schedule: Q01DX010 (ip)
  T/C: 95 % of control and 112 % of control
dose: 200.0 mg/kg/injection, schedule: Q01DX010 (ip)
  T/C: 95 % of control and 112 % of control
dose: 400.0 mg/kg/injection, schedule: Q01DX010 (ip)
  T/C: 112 % of control

## C1CN1c1nc(N2CC2)nc(N2CC2)n1
dose: 0.13 mg/kg/injection, schedule: Q01DX010 (ip)
  T/C: 111 % of control
dose: 0.25 mg/kg/injection, schedule: Q01DX010 (ip)
  T/C: 111 % of control
dose: 125.0 micrograms/kg/injection, schedule: Q01DX010 (ip)
  T/C: 100 % of control
dose: 250.0 micrograms/kg/injection, schedule: Q01DX010 (ip)
  T/C: 105 % of control
dose: 1000.0 micrograms/kg/injection, schedule: Q01DX010 (ip)
  T/C: 94 % of control

## CN(C)c1nc(N(C)C)nc(N(C)C)n1
dose: 18.8 mg/kg/injection, schedule: Q01DX010 (ip)
  T/C: 94 % of control and 102 % of control
dose: 37.5 mg/kg/injection, schedule: Q01DX010 (ip)
  T/C: 94 % of control
dose: 75.0 mg/kg/injection, schedule: Q01DX010 (ip)
  T/C: 97 % of control and 102 % of control
dose: 150.0 mg/kg/injection, schedule: Q01DX010 (ip)
  T/C: 102 % of control and 107 % of control

## CC[n+]1c(-c2ccccc2)c2cc(N)ccc2c2ccc(N)cc21
dose: 0.12 mg/kg/injection, schedule: Q01DX015 (ip)
  T/C: 105 % of control
dose: 0.25 mg/kg/injection, schedule: Q01DX015 (ip)
  T/C: 109 % of control
dose: 0.5 mg/kg/injection, schedule: Q01DX015 (ip)
  T/C: 120 % of control
dose: 1.0 mg/kg/injection, schedule: Q01DX015 (ip)
  T/C: 117 % of control
dose: 2.0 mg/kg/injection, schedule: Q01DX015 (ip)
  T/C: 208 % of control
dose: 5.0 mg/kg/injection, schedule: Q01DX015 (ip)
  T/C: 163 % of control
dose: 10.0 mg/kg/injection, schedule: Q01DX015 (ip)
  T/C: 87 % of control

## CC(CCC(C)OS(C)(=O)=O)OS(C)(=O)=O (stereo unspecified)
[1]
  T/C: 100 % of control
[2]
  T/C: 100 % of control and 105 % of control
[3]
  T/C: 100 % of control and 105 % of control
dose: 16.0 mg/kg/injection, schedule: Q01DX010 (ip)
  T/C: 120 % of control

## Oc1cc(CN(CCCl)CCCl)c(O)cc1CN(CCCl)CCCl
dose: 0.63 mg/kg/injection, schedule: Q01DX010 (ip)
  T/C: 111 % of control
dose: 1.25 mg/kg/injection, schedule: Q01DX010 (ip)
  T/C: 116 % of control and 122 % of control
dose: 2.5 mg/kg/injection, schedule: Q01DX010 (ip)
  T/C: 172 % of control
dose: 5.0 mg/kg/injection, schedule: Q01DX010 (ip)
  T/C: 122 % of control
dose: 10.0 mg/kg/injection, schedule: Q01DX010 (ip)
  T/C: 122 % of control

## N=C(N)c1ccc(Nc2ccc(C(=N)N)cc2)cc1
dose: 3.0 mg/kg/injection, schedule: Q01DX010 (ip)
  T/C: 94 % of control and 100 % of control
dose: 6.0 mg/kg/injection, schedule: Q01DX010 (ip)
  T/C: 100 % of control
dose: 12.0 mg/kg/injection, schedule: Q01DX010 (ip)
  T/C: 88 % of control and 100 % of control
dose: 24.0 mg/kg/injection, schedule: Q01DX010 (ip)
  T/C: 87 % of control

## Nc1nc(F)nc2c1ncn2C1OC(CO)C(O)C1O (stereo unspecified)
dose: 0.5 mg/kg/injection, schedule: Q01DX010 (ip)
  T/C: 100 % of control
dose: 0.75 mg/kg/injection, schedule: Q01DX015 (ip)
  T/C: 99 % of control
dose: 1.0 mg/kg/injection, schedule: Q01DX010 (ip)
  T/C: 100 % of control and 112 % of control
dose: 1.5 mg/kg/injection, schedule: Q01DX015 (ip)
  T/C: 98 % of control
[1]
  T/C: 100 % of control and 112 % of control
[2]
  T/C: 100 % of control and 112 % of control
[3]
  T/C: 88 % of control
